# Measured values from ChEMBL document CHEMBL5108022, “Structure-Activity relationship study of benzothiophene oxobutanoic acid analogues leading to novel stimulator of interferon gene (STING) agonists” (Eur J Med Chem, 2022).
# pEC50, pIC50: −log10 of the molar value. The source made the active and inactive calls. No cut-off for these calls is given here.
# Tests used:
# [1] = target: T1, Stimulator of interferon genes protein (Mus musculus) (UniProt Q3TBT3); assay: Agonist activity at STING in mouse RAW-Lucia ISG cells assessed as fold change in ISG activation at 50 uM incubated for 24 hrs by Quanti-Luc or Quanti-blue reagent based luminescence assay; format: cell-based
# T1 sequence (whole entry): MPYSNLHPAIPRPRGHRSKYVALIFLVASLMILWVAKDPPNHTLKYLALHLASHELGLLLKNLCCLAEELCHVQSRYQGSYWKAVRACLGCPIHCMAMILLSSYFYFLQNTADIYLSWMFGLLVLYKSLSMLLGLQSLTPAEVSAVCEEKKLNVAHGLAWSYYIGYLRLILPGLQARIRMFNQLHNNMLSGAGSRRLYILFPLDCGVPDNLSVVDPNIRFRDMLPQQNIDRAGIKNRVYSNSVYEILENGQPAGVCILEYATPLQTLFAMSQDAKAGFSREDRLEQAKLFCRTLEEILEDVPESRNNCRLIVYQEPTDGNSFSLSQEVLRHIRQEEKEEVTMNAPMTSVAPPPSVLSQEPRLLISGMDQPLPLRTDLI
# [2] = target: T2, Stimulator of interferon genes protein (Homo sapiens, UniProt Q86WV6); assay: Agonist activity at STING in human THP1-Blue ISG cells assessed as fold change in ISG activation at 10 uM incubated for 24 hrs by Quanti-Luc or Quanti-blue reagent based luminescence assay; format: cell-based; settings: filed as agonist
# Target sequence in this assay (Q86WV6 whole entry): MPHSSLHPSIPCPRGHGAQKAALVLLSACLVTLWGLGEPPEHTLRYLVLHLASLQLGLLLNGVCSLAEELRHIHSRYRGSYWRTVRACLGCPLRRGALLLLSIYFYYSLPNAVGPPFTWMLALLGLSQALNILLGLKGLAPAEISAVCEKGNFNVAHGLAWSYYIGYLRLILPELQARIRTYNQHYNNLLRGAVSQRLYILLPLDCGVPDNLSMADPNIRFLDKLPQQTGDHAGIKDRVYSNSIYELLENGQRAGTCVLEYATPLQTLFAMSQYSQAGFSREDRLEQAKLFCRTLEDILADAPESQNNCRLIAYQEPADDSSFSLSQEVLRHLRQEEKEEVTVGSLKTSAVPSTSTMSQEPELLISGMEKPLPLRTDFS
# [3] = Toxicity in Balb/c mouse implanted with mouse CT26 cells assessed as reduction in body weight at 500 ug, IT administered on day 1,4 and 7 and measured twice per week; format: cell-based; settings: in vivo, other, 168 h, dose 500 µg, time 7 day
# [4] = target: T2, Stimulator of interferon genes protein; assay: Agonist activity at STING in human THP1-Dual cells assessed as increase in TBK1 phosphorylation at 3.3 to 30 uM incubated for 2 to 4 hrs by Western blot analysis; format: cell-based; settings: filed as agonist, dose 3.3-30 µM, time 2-4 hrs
# Target sequence in this assay (Q86WV6 whole entry): as above
# 4T1 = assay: Antitumor activity against mouse 4T1 cells implanted in Balb/c mouse assessed as inhibition of tumor growth at 100 mg/kg, po administered via gavage on day 1,4 and 7 and measured twice per week; format: functional, organism-based; settings: time 7.0 day
# B16-F10 [5] = assay: Antitumor activity against mouse B16-F10 cells implanted in immunocompetent C57BL/6 mouse assessed as inhibition of tumor growth at 100 mg/kg, po administered via gavage on day 1,4 and 7 and measured twice per week; format: functional, organism-based; settings: time 7.0 day
# CT26 [6] = assay: Antitumor activity against mouse CT26 cells implanted in immunocompetent Balb/c mouse assessed as suppression of tumor growth at 500 ug, IT administered on day 1,4 and 7 and measured twice per week; format: functional, cell-based; settings: dose 500.0 µg, time 7.0 day
# [7] = system: Stimulator of interferon genes protein (Homo sapiens), Q86WV6 [UNDEFINED MUTATION]; assay: Agonist activity at STING R232 variant in human 293-Dual hSTING-R232 cells assessed as activation of ISG pathway at 3.3 to 30 uM incubated for 48 hrs by Quanti-Luc or Quanti-blue reagent based luminescence assay; format: cell-based; settings: filed as agonist, dose 3.3-30 µM
# [8] = Toxicity in STING-knockout C57BL/6 mouse implanted with mouse B16-F10 cells assessed as reduction in body weight at 500 ug, IT administered on day 1,4 and 7 and measured twice per week for 8 days; format: cell-based; settings: in vivo, other, 192 h, dose 500 µg, time 8 day
# [9] = target: T2, Stimulator of interferon genes protein; assay: Agonist activity at STING in human THP1-Dual cells assessed as increase in IP-10 mRNA expression at 3.3 to 30 uM incubated for 6 hrs by RT-PCR analysis; format: cell-based; settings: filed as agonist, dose 3.3-30 µM
# Target sequence in this assay (Q86WV6 whole entry): as above
# [10] = target: T2, Stimulator of interferon genes protein; assay: Agonist activity at STING in human THP1-Dual cells assessed as ISG pathway activation incubated for 24 hrs by Quanti-Luc or Quanti-blue reagent based luminescence assay; format: cell-based
# Target sequence in this assay (Q86WV6 whole entry): as above
# [11] = target: T2, Stimulator of interferon genes protein; assay: Agonist activity at STING in human THP1-Dual cells assessed as increase in IRF3 phosphorylation at 3.3 to 30 uM incubated for 2 to 4 hrs by Western blot analysis; format: cell-based; settings: filed as agonist, dose 3.3-30 µM, time 2-4 hrs
# Target sequence in this assay (Q86WV6 whole entry): as above
# [12] = Toxicity in C57BL/6 mouse implanted with mouse B16-F10 cells assessed as reduction in body weight at 500 ug, IT administered on day 1,4 and 7 and measured twice per week for 8 days; format: cell-based; settings: in vivo, other, 192 h, dose 500 µg, time 8 day
# CT26 [13] = assay: Immunological memory derived antitumor activity against mouse CT26 cells implanted in immunocompetent Balb/c mouse assessed as suppression of tumor growth at 500 ug, IT administered on day 1,4 and 7 followed by reinoculation of cells into tumor-free animal after 2 months and measured for 22 days post inoculation; format: functional, cell-based; settings: dose 500.0 µg, time 22.0 day
# Mus musculus = organism: Mus musculus; assay: Binding affinity to mouse STING R231 variant assessed as thermal stability by measuring rightward shift in fluorescence curve at 50 uM by SYPRO orange dye based differential scanning fluorimetry assay; settings: filed as agonist
# [14] = Toxicity in C57BL/6 mouse implanted with mouse B16-F10 cells assessed as reduction in body weight at 100 mg/kg, po administered via gavage on day 1,4 and 7 and measured twice per week; format: organism-based; settings: in vivo, 168 h, time 7 day
# Homo sapiens = organism: Homo sapiens; assay: Binding affinity to human STING 293Q variant assessed as thermal stability by measuring rightward shift in fluorescence curve at 50 uM by SYPRO orange dye based differential scanning fluorimetry assay; settings: filed as agonist
# [15] = Toxicity against Balb/c mouse implanted with mouse 4T1 cells assessed as reduction in body weight at 100 mg/kg, po administered via gavage on day 1,4 and 7 and measured twice per week for 22 days; format: organism-based; settings: in vivo, 528 h, time 22 day
# B16-F10 [16] = assay: Antitumor activity against mouse B16-F10 cells implanted in immunocompetent C57BL/6 mouse assessed as inhibition of tumor growth at 500 ug, IT administered on day 1,4 and 7 and measured twice per week for 8 days; format: functional, cell-based; settings: dose 500.0 µg, time 8.0 day
# [17] = target: T1, Stimulator of interferon genes protein (Mus musculus); assay: Agonist activity at STING in mouse RAW-Lucia ISG cells assessed as activation of ISG pathway incubated for 24 hrs by Quanti-Luc or Quanti-blue reagent based luminescence assay; format: cell-based; settings: filed as agonist, dose 3.12-50 µM, DDE = dose-dependent effect
# [18] = system: Stimulator of interferon genes protein (Homo sapiens), Q86WV6 [UNDEFINED MUTATION]; assay: Agonist activity at STING H232 variant in human 293-Dual hSTING-H232 cells assessed as activation of ISG pathway at 3.3 to 30 uM incubated for 48 hrs by Quanti-Luc or Quanti-blue reagent based luminescence assay; format: cell-based; settings: filed as agonist, dose 3.3-30 µM
# [19] = target: T2, Stimulator of interferon genes protein; assay: Agonist activity at STING in human THP1-Dual cells assessed as increase in IFN-beta mRNA expression at 3.3 to 30 uM incubated for 6 hrs by RT-PCR analysis; format: cell-based; settings: filed as agonist, dose 3.3-30 µM
# Target sequence in this assay (Q86WV6 whole entry): as above
# [20] = Toxicity in STING-knockout C57BL/6 mouse implanted with mouse B16-F10 cells assessed as reduction in body weight at 50 ug, IT administered on day 1,4 and 7 and measured twice per week for 8 days; format: cell-based; settings: in vivo, other, 192 h, dose 50 µg, time 8 day
# [21] = Toxicity in C57BL/6 mouse implanted with mouse B16-F10 cells assessed as reduction in body weight at 50 ug, IT administered on day 1,4 and 7 and measured twice per week for 8 days; format: cell-based; settings: in vivo, other, 192 h, dose 50 µg, time 8 day
# [22] = target: T2, Stimulator of interferon genes protein; assay: Binding affinity to STING HAQ variant (unknown origin)
# Target sequence in this assay (Q86WV6 whole entry, looked up, change not shown): as the sequence (Q86WV6 whole entry) above
# [23] = target: T2, Stimulator of interferon genes protein; assay: Agonist activity at STING in human THP-1 cells assessed as increase in IFN-beta secretion incubated for 5 hrs by AlphaLISA assay; format: cell-based
# [24] = target: T2, Stimulator of interferon genes protein; assay: Displacement of cGAMP from human full length STING HAQ variant expressed in insect microsomes incubated for 16 hrs by TopCount scintillation counting method; parameters: species or system Microsome
# Target sequence in this assay (Q86WV6 whole entry, looked up, change not shown): as the sequence (Q86WV6 whole entry) above
# CT26 [25] = assay: Antitumor activity against mouse CT26 cells implanted in immunocompetent Balb/c mouse assessed as suppression of tumor growth at 250 ug, IT administered on day 1,4 and 7 and measured twice per week; format: functional, cell-based; settings: dose 250.0 µg, time 7.0 day
# Stimulator of interferon genes protein (Homo sapiens), Q86WV6 [UNDEFINED MUTATION], sequence (Q86WV6 whole entry, looked up, change not shown): as the sequence (Q86WV6 whole entry) above
SMILES,fold change (FC) ([1]; filed as agonist),fold change (FC) [2],also measured
COc1cc2cc(C(=O)CCC(=O)O)oc2cc1OC,1,0.9,
COc1cc2cc(C(=O)CCC(=O)N(C)O)sc2cc1OC,0.7,15,
COc1cc2cc(C(=O)CCC(=O)ONC(C)C)sc2cc1OC,19.3,25.4,Activity [3]: Non-Toxic; Activity [4]: Active; inhibition (4T1): Active; inhibition (B16-F10 [5]): Active; Activity (CT26 [6]): Active; Activity [7]: Active; Activity [8]: Non-Toxic; Activity [9]: Active; pEC50 [10]: 5.59; Activity [11]: Active; Activity [12]: Non-Toxic; Activity (CT26 [13]): Active; Activity (Mus musculus): Active; Activity [14]: Non-Toxic; Activity (Homo sapiens): Active; Activity [15]: Non-Toxic; inhibition (B16-F10 [16]): Active; Activity [17]: Dde; Activity [18]: Active; Activity [19]: Active
COc1cc2nc(C(=O)CCC(=O)O)[nH]c2cc1OC,1.1,0.9,
COc1cc2c(cc1OC)S(=O)(=O)C(C(=O)CCC(=O)O)=C2,0.7,1.1,
COc1cc2cc(C(=O)CCC(=O)NOCc3ccccc3)sc2cc1OC,0.8,16.5,
COc1cc2cc(C(=O)CCC(=O)ONCc3ccccc3)sc2cc1OC,25.3,22.4,pEC50 [10]: 5.21
COc1cc2cc(C(=O)CCC(=O)ONC3CCCCC3)sc2cc1OC,1.1,25,
Nc1ncnc2c1ncn2[C@@H]1O[C@@H]2CO[P@@](=O)(S)O[C@@H]3[C@H](O)[C@@H](CO[P@@](=O)(S)O[C@H]2[C@H]1O)O[C@H]3n1cnc2c(N)ncnc21,,,Activity [20]: Non-Toxic; Activity [21]: Non-Toxic
COc1cc2cc(C(=O)NCCC(=O)O)sc2cc1OC,,1.2,
COc1cc2cc(CCCC(=O)O)sc2cc1OC,,1,fold change (FC) [1]: < 1
COc1cc2cc(C(=O)CCC(=O)N(O)Cc3ccccc3)sc2cc1OC,1.1,2.3,
COc1cc2cc(C(CCC(=O)O)OC)sc2cc1OC (centres undefined),0.5,1,
COc1cc2cc(C3=NOC(C(=O)O)C3)sc2cc1OC (centres undefined),0.9,3.8,
COc1cc2cc(C(=O)NCC(=O)O)sc2cc1OC,,1.2,
COc1cc2cc(NC(=O)CC(=O)O)sc2cc1OC,1.1,1,
COc1cc2cc(C(=O)CCC(=O)O)sc2cc1OC,13.6,23.5,pEC50 [22]: 5.76; pEC50 [10]: 5.09
COc1cc2cc(C(O)CCC(=O)O)sc2cc1OC (centres undefined),,0.9,fold change (FC) [1]: < 1
COc1cc2cc(-c3cc(C(=O)O)[nH]n3)sc2cc1OC,1,1,
COc1cc2cc(C(=O)CCC(=O)N(C)OC)sc2cc1OC,0.5,3.2,
CONC(=O)CCC(=O)c1cc2cc(OC)c(OC)cc2s1,2.7,24.2,
COc1cc2sc(C(=O)CC(C)(C)C(=O)O)cc2c(F)c1OCCCOc1c(OC)cc2sc(C(=O)CC(C)(C)C(=O)O)cc2c1F,,,pEC50 [23]: 8.10; pIC50 [24]: 8.70
COc1cc2cc(C(=O)CCC(=O)ONC(C)(C)C)sc2cc1OC,,21.2,fold change (FC) [1]: < 1
COc1cc2cc(C(=O)CCC(=O)N(O)C(C)C)sc2cc1OC,1.2,1,
COc1cc2cc(C(=O)CCCC(=O)O)sc2cc1OC,0.8,1.1,
Cc1ccc2c(=O)c3cccc(CC(=O)O)c3oc2c1C,,,Activity (CT26 [25]): Active
COc1cc2cc(C(=O)SCC(=O)O)sc2cc1OC,1,1,
